Assay results: patent US20100173888A1 (Pfizer Inc, priority 2008, published 2010)
pIC50: −log10 of the molar value.

molecular target: human recombinant H-PGDS (Homo sapiens, UniProt O60760); assay: Fluorescence intensity h-PGDS TBA enzyme assay (PGH2 depletion, MDA/TBA fluorescence); type: biochemical; details: 1:175,000 human recombinant H-PGDS, 42 second reaction, 3-fold serial dilutions, highest concentration typically 1 μM
Procedure, shortened: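 Recombinant human H-PGDS preincubated with inhibitor 10 min at room temperature in pH 8.0 Tris, MgCl2, IgG, 2.5 mM glutathione, 0.5% DMSO. Reaction with 5.0 μM PGH2 stopped at 42 s with FeCl2/citric acid; MDA–TBA fluorescence (ex 530/em 565 nm) read after 70° C. IC50 by 4-parameter fit, 11 concentrations.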

human recombinant H-PGDS, sequence (O60760 whole entry): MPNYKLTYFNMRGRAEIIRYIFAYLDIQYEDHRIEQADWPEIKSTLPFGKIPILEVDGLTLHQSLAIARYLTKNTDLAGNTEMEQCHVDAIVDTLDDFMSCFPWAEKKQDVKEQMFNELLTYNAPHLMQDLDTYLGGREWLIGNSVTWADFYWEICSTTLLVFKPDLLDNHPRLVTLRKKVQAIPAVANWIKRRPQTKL

`CCN1CCN(C(=O)[C@@]2(C)CCC[C@@H](NC(=O)c3ccc(-c4cccc(F)c4)nc3)C2)CC1` (relative stereo) [Example 233, N-{(1R*,3S*)-3-[(4-Ethylpiperazin-1-yl)carbonyl]-3-methylcyclohexyl}-6-(3-fluorophenyl)nicotinamide] was tested. Which pIC50 did it give?
Its pIC50 is 8.39.

How did the pIC50 turn out when `N[C@H]1CC[C@H](NC(=O)c2ccc(-c3cccc(F)c3)nc2)CC1` [Example 142B, N-(trans-4-Aminocyclohexyl)-6-(3-fluorophenyl)nicotinamide] was run?
Its pIC50 is 7.79.

With `CN1CCN(CC(=O)N[C@@H]2CCC[C@H](NC(=O)c3ccc(-c4cccc(F)c4)nc3)C2)CC1` (relative stereo) [Example 204] as the molecule, how does the pIC50 read?
The pIC50 was 7.16.

`O=C(N[C@@H]1CCC[C@H](CNC(=O)[C@@H]2CCCN2)C1)c1ccc(-c2cccc(F)c2)nc1` [Example 259] was tested. Which pIC50 did it give?
Its pIC50 is 7.36.

How did the pIC50 turn out when `O=C(N[C@H]1CC[C@@H](C(=O)N2CCOCC2)C1)c1ccc(-c2cccc(F)c2)nc1` [Example 170, 6-(3-Fluorophenyl)-N-[(1S,3R)-3-(morpholin-4-ylcarbonyl)cyclopentyl]nicotinamide] was run?
Its pIC50 is 8.37.

`CC(C)(O)[C@H]1CC[C@@H](NC(=O)c2ccc(-c3cccc(F)c3)nc2)CC1` [Example 275, 6-(3-Fluorophenyl)-N-[cis-4-(1-hydroxy-1-methylethyl)cyclohexyl]nicotinamide] was tested. Which pIC50 did it give?
The pIC50 was 7.09.

How did the pIC50 turn out when `CN(C)C(=O)N[C@H]1CC[C@H](NC(=O)c2ccc(-c3cccc(F)c3)nc2)CC1` [Example 271] was run?
Its pIC50 is 7.74.

`O=C(N[C@H]1CC[C@H](C(=O)NCCCO)CC1)c1ccc(-c2cccc(F)c2)nc1` [Example 113G, 6-(3-fluorophenyl)-N-{trans-4-[(3-hydroxypropyl)carbamoyl]cyclohexyl}nicotinamide] was tested. Which pIC50 did it give?
Its pIC50 is 8.35.

With `C[C@H](O)C(=O)N[C@@H]1CCC[C@H](NC(=O)c2ccc(-c3cccc(F)c3)nc2)C1` [Example 206, 6-(3-Fluorophenyl)-N-{cis-3-{[(2S)-2-hydroxypropanoyl]amino}cyclohexyl]nicotinamide] as the molecule, how does the pIC50 read?
The pIC50 was 7.87.

With `CNC(=O)N(C)[C@H]1CC[C@H](NC(=O)c2ccc(-c3cccc(F)c3)nc2)CC1` [Example 272, 6-(3-Fluorophenyl)-N-{trans-4-[methyl(methylcarbamoyl)amino]cyclohexyl}nicotinamide] as the molecule, how does the pIC50 read?
The pIC50 was 7.96.

`COC(=O)C1(NC(=O)c2ccc(-c3cccc(OC)c3)nc2)CC1` [Example 4, Methyl 1-({[6-(3-methoxyphenyl)pyridin-3-yl]carbonyl}amino)cyclopropanecarboxylate] was tested. Which pIC50 did it give?
The pIC50 was no more than 6.00.

How did the pIC50 turn out when `CN(C)CC(=O)NC[C@H]1CCC[C@@H](NC(=O)c2ccc(-c3cccc(F)c3)nc2)C1` (relative stereo) [Example 253] was run?
The pIC50 was 7.29.

With `CCN1CCC(CNC(=O)[C@H]2CC[C@H](NC(=O)c3ccc(-c4cccc(F)c4)nc3)CC2)C1` (relative stereo) [Example 113F, N-(trans-4-{[(1-ethylpyrrolidin-3-yl)methyl]carbamoyl}cyclohexyl)-6-(3-fluorophenyl)nicotinamide] as the molecule, how does the pIC50 read?
The pIC50 was 7.22.

With `O=C(N[C@@H]1CC[C@@H](O)C1)c1ccc(-c2cccc(F)c2)nc1` [Example 130A, 6-(3-fluorophenyl)-N-[(1R,3R)-3-hydroxycyclopentyl]nicotinamide] as the molecule, how does the pIC50 read?
Its pIC50 is 7.28.

How did the pIC50 turn out when `CS(=O)(=O)N[C@H]1CCC[C@H](NC(=O)c2ccc(-c3cccc(F)c3)nc2)C1` (relative stereo) [Example 249, 6-(3-Fluoro-phenyl)-N-trans-(3-methanesulfonylamino-cyclohexyl)-nicotinamide] was run?
Its pIC50 is 7.86.

How did the pIC50 turn out when `O=C(NC1CCCc2ccccc21)c1ccc(-c2cc(F)cc(F)c2)nc1` (stereo not drawn) [Example 124, 6-(3,5-Difluorophenyl)-N-(1,2,3,4-tetrahydronaphthalen-1-yl)nicotinamide] was run?
The pIC50 was 7.64.

With `COc1cccc(-c2ccc(C(=O)NC3CCCCC3)cn2)c1` [Example 20, N-Cyclohexyl-6-(3-methoxyphenyl)nicotinamide] as the molecule, how does the pIC50 read?
Its pIC50 is 6.98.

`O=C(NC1CCCCC1)c1ccc(-c2ccccc2)nc1` [Example 21, N-Cyclohexyl-6-phenylnicotinamide] was tested. Which pIC50 did it give?
Its pIC50 is 8.78.

With `Cn1nccc1C(=O)NC[C@H]1CCC[C@@H](NC(=O)c2ccc(-c3cccc(F)c3)nc2)C1` (relative stereo) [Example 255] as the molecule, how does the pIC50 read?
The pIC50 was 7.91.

How did the pIC50 turn out when `O=C(NC1CCCc2ccccc21)c1ccc(-c2cccc(F)c2)nc1` (stereo not drawn) [Example 122, 6-(3-Fluorophenyl)-N-(1,2,3,4-tetrahydronaphthalen-1-yl)nicotinamide] was run?
The pIC50 was 8.38.

With `COC(=O)C1(NC(=O)c2ccc(-c3cccc(F)c3)nc2)CC1` [Example 2, Methyl 1-({[6-(3-fluorophenyl)pyridin-3-yl]carbonyl}amino)cyclopropanecarboxylate] as the molecule, how does the pIC50 read?
The pIC50 was 6.50.

With `O=C(N[C@H]1CC[C@H](C(=O)NCCN2CCCCC2)CC1)c1ccc(-c2cccc(F)c2)nc1` [Example 113H, 6-(3-fluorophenyl)-N-{trans-4-[(2-piperidin-1-ylethyl)carbamoyl]cyclohexyl}nicotinamide] as the molecule, how does the pIC50 read?
The pIC50 was 7.34.

With `CN(C)CCNC(=O)[C@@H]1CC[C@H](NC(=O)c2ccc(-c3cccc(F)c3)nc2)C1` [Example 167, N-[(1S,3R)-3-{[2-(Dimethylamino)ethyl]carbamoyl}cyclopentyl]-6-(3-fluorophenyl)nicotinamide] as the molecule, how does the pIC50 read?
The pIC50 was 7.55.

With `O=C(NC1CCCCC1)c1ccc(-c2ccc(F)cc2)nc1` [Example 22, N-Cyclohexyl-6-(4-fluorophenyl)nicotinamide] as the molecule, how does the pIC50 read?
The pIC50 was 7.39.

`CC(C)(O)CNC(=O)[C@@H]1CCC[C@H](NC(=O)c2ccc(-c3cccc(F)c3)nc2)C1` (stereo in doubt) [Example 195, 6-(3-Fluorophenyl)-N-{(1S,3R)-3-[(2-hydroxy-2-methylpropyl)carbamoyl]cyclohexyl}nicotinamide] was tested. Which pIC50 did it give?
The pIC50 was 7.93.

`COCC1(O)CCC(NC(=O)c2ccc(-c3cccc(F)c3)nc2)CC1` (stereo not drawn) [Example 235, 6-(3-Fluorophenyl)-N-[4-hydroxy-4-(methoxymethyl)cyclohexyl]nicotinamide] was tested. Which pIC50 did it give?
The pIC50 was 7.93.

How did the pIC50 turn out when `CC(C)(CCO)NC(=O)[C@@H]1CC[C@H](NC(=O)c2ccc(-c3cccc(F)c3)nc2)C1` [Example 172, 6-(3-Fluorophenyl)-N-{(1S,3R)-3-[(3-hydroxy-1,1-dimethylpropyl)carbamoyl]cyclopentyl}nicotinamide] was run?
Its pIC50 is 8.19.

With `O=C(NC1CCC(O)(CO)CC1)c1ccc(-c2cccc(F)c2)nc1` (stereo not drawn) [Example 227, 6-(3-Fluorophenyl)-N-[4-hydroxy-4-(hydroxymethyl)cyclohexyl]nicotinamide] as the molecule, how does the pIC50 read?
The pIC50 was 7.62.

`O=C(N[C@H]1CC[C@H](C(=O)N[C@H]2CCNC2=O)CC1)c1ccc(-c2cccc(F)c2)nc1` [Example 113C, 6-(3-fluorophenyl)-N-(trans-4-{[(3S)-2-oxopyrrolidin-3-yl]carbamoyl}cyclohexyl)nicotinamide] was tested. Which pIC50 did it give?
The pIC50 was 8.13.

`COC[C@H]1CCC[C@H]1NC(=O)c1ccc(-c2cccc(F)c2)nc1` [Example 10] was tested. Which pIC50 did it give?
Its pIC50 is 7.03.

How did the pIC50 turn out when `O=C(N[C@H]1CC[C@H](C(=O)NC2CCNCC2)CC1)c1ccc(-c2cccc(F)c2)nc1` [Example 201, 6-(3-Fluorophenyl)-N-[trans-4-(piperidin-4-ylcarbamoyl)cyclohexyl]nicotinamide] was run?
Its pIC50 is 7.51.

How did the pIC50 turn out when `C[C@H](O)C(=O)N[C@H]1CC[C@H](NC(=O)c2ccc(-c3cccc(F)c3)nc2)CC1` [Example 144, 6-(3-Fluorophenyl)-N-(trans-4-{[(2S)-2-hydroxypropanoyl]amino}cyclohexyl)nicotinamide] was run?
The pIC50 was 8.12.

`CN1CCCC(C(=O)N[C@H]2CC[C@@H](NC(=O)c3ccc(-c4cccc(F)c4)nc3)CC2)C1` (relative stereo) [Example 219, 6-(3-fluorophenyl)-N-(cis-4-{[(1-methylpiperidin-3-yl)carbonyl]amino}cyclohexyl)nicotinamide] was tested. Which pIC50 did it give?
The pIC50 was 7.49.

`O=C(N[C@@H]1CCC[C@@H](C(=O)O)C1)c1ccc(-c2cccc(F)c2)nc1` (relative stereo) [Example 238A, trans-3-({[6-(3-Fluorophenyl)pyridin-3-yl]carbonyl}amino)cyclohexanecarboxylic acid] was tested. Which pIC50 did it give?
Its pIC50 is 7.56.

`Cc1noc(C[C@H]2CC[C@H](NC(=O)c3ccc(-c4cccc(F)c4)nc3)CC2)n1` [Example 261, 6-(3-Fluorophenyl)-N-[trans 4-(3-methyl-[1,2,4]oxadiazol-5-ylmethyl)cyclohexyl]nicotinamide] was tested. Which pIC50 did it give?
Its pIC50 is 8.40.

With `O=C(NC12CC(C1)C2)c1ccc(-c2cccc(F)c2)nc1` [Example 125, N-Bicyclo[1.1.1]pent-1-yl-6-(3-fluorophenyl)nicotinamide] as the molecule, how does the pIC50 read?
The pIC50 was 8.18.

With `CC(O)[C@H]1CCC[C@@H](NC(=O)c2ccc(-c3cccc(F)c3)nc2)C1` (relative stereo) [Example 199, 6-(3-Fluorophenyl)-N-[(cis)-3-(1-hydroxyethyl)cyclohexyl]nicotinamide] as the molecule, how does the pIC50 read?
Its pIC50 is 7.66.

With `CC(=O)N1CC(NC[C@H]2CCC[C@@H](NC(=O)c3ccc(-c4cccc(F)c4)nc3)C2)C1` (relative stereo) [Example 257] as the molecule, how does the pIC50 read?
The pIC50 was 7.46.

With `CCN(C)C(=O)[C@@H]1CC[C@H](NC(=O)c2ccc(-c3cccc(F)c3)nc2)C1` [Example 157, N-{(1S,3R)-3-[ethyl(methyl)carbamoyl]cyclopentyl}-6-(3-fluorophenyl)nicotinamide] as the molecule, how does the pIC50 read?
Its pIC50 is 8.24.

With `CN(C)C(=O)[C@H]1CC[C@@H](NC(=O)c2ccc(-c3cccc(F)c3)nc2)C1` [Example 165, N-[(1R,3S)-3-Dimethylcarbamoyl-cyclopentyl]-6-(3-fluorophenyl)nicotinamide] as the molecule, how does the pIC50 read?
Its pIC50 is 7.77.

How did the pIC50 turn out when `CC(C)n1ncc2c1CCCC2NC(=O)c1ccc(-c2cccc(F)c2)nc1` (stereo not drawn) [Example 129, 6-(3-Fluorophenyl)-N-(1-isopropyl-4,5,6,7-tetrahydro-1H-indazol-4-yl)nicotinamide] was run?
Its pIC50 is 6.71.

`CS(=O)(=O)N[C@@H]1CCC[C@H](NC(=O)c2ccc(-c3cccc(F)c3)nc2)C1` (relative stereo) [Example 207, 6-(3-Fluoro-phenyl)-N-cis-(3-methanesulfonylamino-cyclohexyl)-nicotinamide] was tested. Which pIC50 did it give?
Its pIC50 is 7.09.
